Source: patent US11245111B2, “Stable positive side material for all-organic flow battery” (UNIVERSITY OF SOUTHERN CALIFORNIA, priority 2017, dated 2022)

Assay: Proto-desulfonation studies (heat treatment in sulfuric acid)
Assay type: physicochemical
Conditions: 1 M solution, 24 hours in 1M sulfuric acid at 60 degrees Celsius
Method: Proto-Desulfonation Studies.
We determined that the molecule was stable against proto-desulfonation, by heat treatment of 1 M solution of DHDMDS 24 hours in 1M sulfuric acid at 60 degrees Celsius. […] If decomposition occurred there would be the formation of a precipitate of an insoluble de-sulfonated material.

| stability against proto-desulfonation (decomposition products observed) | SMILES |
| --- | --- |
| no decomposition products | Cc1c(O)c(C)c(S(=O)(=O)O)c(O)c1S(=O)(=O)O [DHDMDS, 2,5-dihydroxy-4,6-dimethylbenzene-1,3-disulfonic acid] |
| decomposes readily | Cc1cc(O)c(S(=O)(=O)O)c(C)c1O [DHDMBS, 2,5-dihydroxy-4,6-dimethylbenzene-1-sulfonic acid] |
